Source: patent US8829028B2, “5-HT4 receptor antagonists for the treatment of heart failure” (Serodus AS, priority 2002, dated 2014)
Values joined by “and” are separate entries in the source; they are usually repeats but may differ in a detail not shown here. Equal entries are not always repeated. Structures can show the parent of a compound that is named as a salt.

Legend:
5-HT4 receptor [1] = biological target: T1, 5-HT4 receptor (Rattus norvegicus, UniProt Q62758); assay: Antagonism of the serotonin inotropic response by 5-HT4 antagonists in post-MI rat papillary muscle (reversal, curve shift, Schild Kb); format: cell-based; conditions: for block of the inotropic response to serotonin: each antagonist added as printed
T1 construct: The papillary muscles were mounted in organ baths; from tissue; host or cells: rat posterior left ventricular papillary muscle (post-MI or aortic-banding heart failure)
T1 sequence (Q62758 whole entry): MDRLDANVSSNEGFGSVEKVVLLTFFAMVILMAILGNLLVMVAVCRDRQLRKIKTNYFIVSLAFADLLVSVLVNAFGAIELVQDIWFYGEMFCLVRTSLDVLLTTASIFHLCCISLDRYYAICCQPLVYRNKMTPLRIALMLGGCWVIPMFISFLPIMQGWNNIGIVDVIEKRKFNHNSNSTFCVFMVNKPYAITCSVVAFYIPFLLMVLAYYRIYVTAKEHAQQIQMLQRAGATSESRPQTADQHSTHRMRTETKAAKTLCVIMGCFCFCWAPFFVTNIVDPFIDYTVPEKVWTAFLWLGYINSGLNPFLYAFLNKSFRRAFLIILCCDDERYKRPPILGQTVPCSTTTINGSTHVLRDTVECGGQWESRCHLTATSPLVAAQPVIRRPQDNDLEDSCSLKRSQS
Protocol: (§1) The muscles were field stimulated with alternating polarity at 1 Hz with impulses of 5 msec duration and current about 20% above individual threshold (10-15 mA, determined in each experiment). The isometrically contracting muscles were stretched to the maximum of their length-tension curve. The force was recorded and analysed as previously described (Skomedal et al., 1997, J. Pharmacol. Exp. Ther. 280: 721-729). The muscles were allowed to equilibrate for 90 minutes. […] Averaged contraction-relaxation cycles (CRC) were calculated for different experimental periods, and these cycles were used to determine descriptive parameters like maximal development of force (dF/dt)max, time to peak force (TPF) and time to relaxation to 20% level (TR2O). Relaxation time (RT) was calculated as TR2O-TPF. (dF/dt)max was used as an index of contractility. Inotropic responses induced by agonists were expressed by increase in (dF/dt)max. RT was used as index of relaxation. Lusitropic responses were expressed as reduction in RT. Mechanical response at the end of the equilibrium period was used as the control response.
(§2) Agonist was added cumulatively or as a single bolus directly to the organ baths and was completely mixed in the solution within 2-3 seconds. […] The different agonists were added directly to the organ baths in increasing concentrations until supramaximal concentrations of agonist were obtained with respect to maximal inotropic response.
The responses for each concentration of agonist were generally calculated as percent of maximal response. The concentration-response curves constructed from papillary muscle experiment were constructed according to Ariens and Simonis (1964, supra), by estimating centiles (EC10 to EC100) for each single experiment and calculating the corresponding means. This calculation provides mean curves that express the response as fractional response or percent of maximum and display horizontal positioning and the correct mean slope of the curves. The horizontal positioning of the concentration-response curves was expressed as pEC50-values (=−log EC50). Data are expressed as mean±standard error of the mean (SEM) and the number of animals expressed as n. The significance levels of differences were calculated according to Students t-test. P<0.05 is considered statistically significant. The inhibition constants Kb were calculated from the Schild equation, based on the relative shifts of the concentration-response curves for receptor stimulation.

[2] = system: 5-HT2A receptor (Rattus norvegicus); conditions: ketanserin 0.1 μmol/l
5-HT2A receptor (Rattus norvegicus), sequence (Q62758 whole entry): as above
Protocol: as §1, with “RT was used as index of relaxation.” left out, “Mechanical response at the end of the equilibrium period was used as the control response.” left out
The responses for each concentration of agonist were generally calculated as percent of maximal response. […] The horizontal positioning of the concentration-response curves was expressed as pEC50-values (=−log EC50). Data are expressed as mean±standard error of the mean (SEM) and the number of animals expressed as n. The significance levels of differences were calculated according to Students t-test. […]

[3] = system: papillary muscles from Chronic heart failure rats; assay: Inotropic and lusitropic response of isolated papillary muscles from post-MI Chronic heart failure rats (organ bath, 1 Hz); format: cell-based, rat; conditions: for RT (TR20−TPF), relaxation time / TPF (time to peak force) / TR20 (time to relaxation to 20% level): CHF, serotonin 10 μmol/l, then isoprenaline 100 μmol/l
Protocol: (§3) Male, Wistar rats (Mollegaard Breeding and Research Centre, Skensved, Denmark), weighing about 320 g were intubated and ventilated with 68% N2O, 29% O2 and 2-3% Isofluran (Abbot Laboratories, USA). An extensive myocardial infarction (MI) was induced by a proximal ligation of the left coronary artery. Six weeks later the rats were anaesthetized and ventilated on the respirator with 2.2% Isofluran. Left ventricular pressures were measured (Sjaastad et al., 2000, J. Appl. Physiol, 89: 1445-1454), and Chronic heart failure rats were included in the study if left ventricular end diastolic pressure (LVEDP) was >15 mm Hg. […] The sham-operated animals (SHAM) were subjected to the same surgical procedure but the coronary artery was not ligated.
(§4) Hearts were isolated from the anaesthetized animals (see above) and carefully dissected free of connective tissue and transferred to ice cold 0.9% NaCl and weighed. The aorta was cannulated, and the coronaries were perfused at 31° C. with a relaxing solution containing: (mmol/l) NaCl 118.3; KCl 3.0; CaCl2 0.5; MgSO4 4.0; KH2PO4 2.4; NaHCO3 24.9; glucose 10.0; mannitol 2.2 and equilibrated with 95% O2/5% CO2 at 31° C. (pH 7.4). Posterior left ventricular papillary muscle was ligated
(§5) The muscles were transported to a separate laboratory and mounted in organ baths. […] The papillary muscles were mounted in organ baths containing the relaxing solution and allowed to adapt at 31° C. for about 20 minutes before the solution was changed to one containing the following (in mmol/l): NaCl 119.2; KCJ 3.0; CaCl2 2.0; MgSO4 1.2; KH2PO4 2.4; NaHCO3 24.9; glucose 10.0; mannitol 2.22 and equilibrated with 95% O2/5% CO2 at 31° C. (pH 7.4).
as §1, §2
(§6) The responses for each concentration of agonist were generally calculated as percent of maximal response. The concentration-response curves constructed from papillary muscle experiment were constructed according to Ariens and Simonis (1964, supra), by estimating centiles (EC10 to EC100) for each single experiment and calculating the corresponding means. This calculation provides mean curves that express the response as fractional response or percent of maximum and display horizontal positioning and the correct mean slope of the curves. The horizontal positioning of the concentration-response curves was expressed as pEC50-values (=−log EC50).

[4] = system: papillary muscles from sham-operated rats; assay: Inotropic and lusitropic response of isolated papillary muscles from sham-operated rats; format: cell-based, rat; conditions: for RT (TR20−TPF), relaxation time / TPF (time to peak force) / TR20 (time to relaxation to 20% level): Sham, N=6, serotonin 10 μmol/l, then isoprenaline 100 μmol/l
Protocol: as §3, §4, §5, §1, §2, §6

5-HT4 receptor [5] = biological target: T1, 5-HT4 receptor; assay: 5-HT4 receptor-mediated inotropic response in papillary muscle of CHF rat 6 weeks after aortic banding; format: cell-based; conditions: serotonin 10 μM; prazosin, timolol, atropine 1 μM each
Protocol: Trans-aortic constriction (aortic banding) of the ascending aorta was induced in 200 g male Wistar rats under anaesthesia, induced by 63% N2O, 32% O2 and 5% Isoflurane and maintained by 66% N2O, 33% O2 and 1-2% Isoflurane. A right-sided thoracotomi was performed through a 3-4 cm long cutaneous incision, the pericardium was opened and the ascending aorta identified and dissected free of surrounding tissue. A ligature was knit around the ascending aorta and a metal probe with diameter 0.9 mm. The metal probe was then removed. The result was a constriction of the ascending aorta with internal diameter about 0.9 mm. The thorax was then closed with 3-0 silk sutures and the skin closed with Dexon 1 sutures. […]
Papillary muscle was extracted from a CHF rat 6 weeks after aortic banding as described above. osterior left ventricular papillary muscle was prepared, mounted in organ bath, equilibrated and field stimulated at 1 Hz (Sjaastad et al. 2003 supra), and the contraction-relaxation cycles (CRCs) were recorded and analysed as previously described (Skomedal et al. 1997, J. Pharmacol Exp Ther 280: 721-729) (Sjaastad et al., 2003, supra) with respect to maximal developed force (Fmax), maximal development of force (dF/dt)max, time to peak force (TPF), time to relaxation to 20% level (TR20) and relaxation time (RT=TR20-TPF).

[6] = system: papillary muscles from MInf rats; assay: Inotropic response to serotonin in papillary muscles from MInf rats (infarction without CHF); format: cell-based, rat; conditions: serotonin 10 μM
From the text: The magnitude of the response correlated positively with infarction size up to 30-40% of the inner myocardial surface in MInf animals (FIG. 8A). In MInf hearts with infarct size 30-40% the inotropic effect was of the same magnitude as in CHF hearts which all had infarct size >40%. A positive correlation with infarction size was also observed for 5-HT4(b) and ANP mRNA expression, whereas 5-HT2A mRNA levels were unchanged (FIG. 8B).

[7] = system: post-infarction congestive heart failure (CHF) rats; assay: Six-week treatment of post-infarction CHF rats with a 5-HT4 antagonist, papillary muscle function afterwards; format: in vivo, rat; conditions: 50 mM SB207266 in s.c. miniosmotic pumps, six weeks
From the text: An extensive myocardial infarction (MI) was induced in 320 g male Wistar rats under anaesthesia (68% N2O, 29% O2 and 2-3% Isofluran) by a proximal ligation of the left coronary artery (Sjaastad et al. 2003, supra). Three days later, rats were included in the study if the rats had both clinical signs of congestive heart failure (tachypnoe and forced ventilation) and a large myocardial infarction as verified by echocardiography. Rats included in the study were randomized blindly to placebo or treatment. […]
After six weeks of treatment, the animals were again placed under Isofluran anaesthesia (68% N2O, 29% O2 and 2-3% Isofluran) with temperature control for echocardiographic and hemodynamic measurements, followed by euthanasia. Posterior left ventricular papillary muscles were then prepared, mounted in organ baths, equilibrated and field stimulated at 1 Hz (Sjaastad et al., 2003 supra) and the contraction-relaxation cycles (CRCs) were recorded and analysed as previously described with respect to maximal developed force (Fmax), maximal development of force (dF/dt)max, time to peak force (TPF), time to relaxation to 20% level (TR20) and relaxation time (RT=TR20-TPF). […]

O=C(OCCN1CCCCC1)c1c[nH]c2ccccc12 [SB203186, 1-piperidinyl-ethyl-1H-indole-3-carboxylate]
pKb (5-HT4 receptor [1]; 6 week post MI rats, 5 nM antagonist): 9.1 | block of the inotropic response to serotonin (5-HT4 receptor [1]; 6 week post MI rats): block the inotropic response to serotonin

O=C(c1ccc(F)cc1)C1CCN(CCn2c(=O)[nH]c3ccccc3c2=O)CC1 [Ketanserin, 3-[2-[4-(4-fluorobenzoyl)-1-piperidinyl]ethyl]-2,4(1H,3H)-quinazolinedione]
shift of the concentration-response curve for serotonin [2]: did not shift

CC(C)NC[C@H](O)c1ccc(O)c(O)c1 [isoprenaline, (−)-isoprenaline hemisulphate]
inotropic effect (increase in contractile force) ([3]; 10 μmol/l isoprenaline as printed, SEM, n=10): 60.4±5.8% and 58.5±7% | RT (TR20−TPF), relaxation time ([3]; n=10, listed as ISO): 81.0 ± 1.8 ms | TPF (time to peak force) ([3]; n=10, listed as ISO): 123.1 ± 1.6 ms | TR20 (time to relaxation to 20% level) ([3]; n=10, listed as ISO): 204.1 ± 2.9 ms | RT (TR20−TPF), relaxation time ([3]; n=10, listed as Iso): 76.2 ± 1.8 % of control | TPF (time to peak force) ([3]; n=10, listed as Iso): 83.2 ± 1.7 % of control | TR20 (time to relaxation to 20% level) ([3]; n=10, listed as Iso): 80.3 ± 1.9 % of control | RT (TR20−TPF), relaxation time ([4]; listed as ISO): 75.0 ± 2.5 ms | TPF (time to peak force) ([4]; listed as ISO): 109.3 ± 2.7 ms | TR20 (time to relaxation to 20% level) ([4]; listed as ISO): 174.0 ± 4.9 ms | RT (TR20−TPF), relaxation time ([4]; listed as Iso): 69.4 ± 3.2 % of control | TPF (time to peak force) ([4]; listed as Iso): 87.4 ± 2.3 % of control | TR20 (time to relaxation to 20% level) ([4]; listed as Iso): 74.5 ± 1.7 % of control | positive inotropic response ([4]; isoprenaline, sham-operated animals, mean±SEM, n=6): 111.6±8.6%

Cl.NCCc1c[nH]c2ccc(O)cc12 [serotonin, 5-hydroxytryptamine hydrochloride]
maximum inotropic response induced by serotonin (5-HT4 receptor [1]; pooled average with and without GR113808, SEM, n=12): 18.7±2.4% | increase in contractile force ([3]; 10 μmol/l serotonin, SEM, n=10): 44.5±2.9% | positive inotropic response above control level ([3]; 10 μmol/l serotonin, carbachol experiment, mean±SEM, n=5): 33.7±6.6% | time from addition of serotonin to maximal inotropic response ([3]; 10 μmol/l serotonin, prazosin, atropine and timolol present): 1 to 2 min | positive inotropic response to serotonin ([4]; 10 μmol/l serotonin, sham-operated animals, n=6): not seen in sham-operated animals | inotropic response to serotonin (5-HT4 receptor [5]): positive inotropic response comparable in magnitude and characteristics to the positive inotropic response to 100 μM isoproterenol | inotropic response to serotonin [6]: elicited an inotropic response qualitatively similar to the response observed in CHF animals

C[N+](C)(C)CCOC(N)=O [Carbachol, carbamylcholine]
inotropic response to serotonin after carbachol (reversal) ([3]; 30 μmol/l carbachol added after 10 μmol/l serotonin, p<0.01): 4.8±6.5%

COc1cc(COc2cc(N)c(Cl)cc2C(=O)CCC2CCN(CCNS(C)(=O)=O)CC2)cc(OC)c1 [RS39604, 1-[4-amino-5-chloro-2-(3,5-dimethoxybenzyloxy)phenyl]-3 [1-[2-[(methylsulf-onyl)amino]ethyl]-4-piperidinyl]-1-propanone hydrochloride]
Kb (5-HT4 receptor [1]; 6 week post MI rats, 5 nM antagonist, read-out: pKb (converted)): 0.631 nM | block of the inotropic response to serotonin (5-HT4 receptor [1]; 6 week post MI rats): block the inotropic response to serotonin

CCCCN1CCC(CNC(=O)c2c3n(c4ccccc24)CCCO3)CC1 [SB207266, N-[(1-butyl-4-piperidinyl)methyl]-3,4-dihydro-2H-[1,3]oxazino[3,2-a]indole-locarboxamide hydrochloride]
maximal inotropic response to β-adrenoceptor stimulation (myocardial function) ([7]; vs placebo): trend towards normalisation | duration of the contraction-relaxation cycle ([7]; preliminary data, not shown): trend towards normalisation

CN1[C@@H]2CC[C@H]1CC(OC(=O)C(CO)c1ccccc1)C2.CN1[C@@H]2CC[C@H]1CC(OC(=O)C(CO)c1ccccc1)C2.O=S(=O)(O)O (stereo partly shown) [Atropine, atropine sulfate]
inotropic response to serotonin restored by atropine ([3]; 1 μmol/l atropine after serotonin and carbachol, p>0.06 vs serotonin alone): 45.1±5.1% | effect on serotonin-induced changes of TPF, TR2O and RT (contraction-relaxation cycle characteristics) ([3]; cumulative 10 μmol/l serotonin, 30 μmol/l carbachol, 1 μmol/l atropine): re-established the contraction-relaxation cycle characteristics
